Source: patent US20100160454A1, “ANTIMICROBIAL AGENTS, COMPOSITIONS AND PRODUCTS CONTAINING THE SAME, AND METHODS OF USING THE COMPOSITIONS AND PRODUCTS” (Eastman Chemical Company, priority 2008, published 2010)

Assays:
Assay in all cases: Microbiological challenge testing in BPW broth, graded subculture counts
Assay type in all cases: cell-based
[1] = system: Candida albicans Wild type; conditions: C. albicans
Description: The microorganisms in the table below were used in challenge tests. They were either ATCC (American Type Culture Collection) or “wild type” as indicated. Wild type organisms were problematic organisms previously isolated from chemical products.
All of the microorganisms were grown in Tryptose Soy Broth (TSB), DIFCO™ available from Becton, Dickinson and Company, containing 1% dextrose. Candida albicans and Aspergillus niger, were incubated at 22° C.+/−2° C. for at least 96 hours. All bacteria were incubated at 35° C.+/−2° C. in a humidified incubator for at least 96 hours.
Candida albicans and Aspergillus niger were also grown on Sabouraud Dextrose Agar (SABD) at 22° C. for 7 to 14 days or until full sporulation was achieved.
The following procedure was followed to determine the amount of each challenge material (inoculum broth) needed to produce a 10^8 CFU/mL challenge, which is equivalent to a final test-sample microbial concentration of 10^5 to 10^6 CFU/mL (CFU=colony forming units).
Using a sterile pipette, 1 mL of the growth from each TSB culture was transferred into tubes of 9 mL buffered water (pH 7.2 phosphate buffer) and mixed thoroughly. This was repeated to make serial 1:10 dilutions. Then, 0.1 mL of each sample and dilution was inoculated onto agar plates to produce the equivalent of a further 1:10 dilution. (C. albicans and A. niger were inoculated onto SABD and bacteria were inoculated onto Plate Count Agar (PCA), DIFCO™ available from Becton, Dickinson and Company.) (The normal volume plated for most samples was 0.1 mL. Some samples that could be very low in micro-organisms (high dilutions) were plated using 0.5 mL of inoculum, in order to produce reproducible counts.) The samples were distributed on the plates using the spread-plate technique. The spread-plate technique is carried out by spreading the sample over the entire plate surface using a sterile spreading rod while rotating the plate with a rotary auto-plater. After the inoculum was absorbed completely by the agar, each plate was inverted and incubated (fungi at 22° C.+/−2° C. and bacteria at 35° C.+/−2° C.).
After incubation for at least 48 hours, colonies that had developed on the agar plates were counted (CFU) and recorded with the corresponding dilution. If counting had to be delayed temporarily, plates were refrigerated, preferably no more than 24 hours, until they could be counted. The number of CFU/mL was determined by multiplying the plate count by the dilution factor of the plate counted.
Turbidity in Nepholemetric Turbidity Units (NTU) was measured for each serial dilution using the HF-Micro 100 Model Turbidimeter. For each microorganism, the plate counts were compared to the turbidity readings.
On the day of challenge, the Candida albicans inoculum broth was poured through nonabsorbent sterile gauze and centrifuged. The […] was then diluted with buffered water (pH 7.2 phosphate buffer) until the desired turbidity was reached. Using a hemocytometer, a determination was made whether the challenge contained the desired concentration. Dilutions were made through 1.0×10^8 and three SABD spread plates were inoculated with 0.1 mL of each dilution. The plates were incubated for at least 48 hours and challenge counts were confirmed.
Control substrates (“broth alone”) were prepared for each microorganism separately in triplicate by adding 13.5 mL of Buffered Peptone Water broth (BPW) containing 1% dextrose to each 20-mL glass tube, then adding 1.5 mL challenge material to produce a final concentration at time zero of 10^5 to 10^6 CFU/mL and a total volume of 15 mL.

[2] = system: Pseudomonas aeruginosa Wild type; conditions: P. aeruginosa
Procedure, shortened: (§1)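 Serial 1:10 dilutions were made in pH 7.2 phosphate buffer and spread-plated onto PCA, and colonies were counted after 48 h or more at 35 °C. In the challenge, BPW–dextrose tubes containing the test material received inoculum at 10^5–10^6 CFU/mL at time zero. Controls without test material served as reference.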

[3] = system: Staphylococcus epidermidis ATCC 12228
Procedure, shortened: as §1

[4] = system: Proteus vulgaris Wild type
Procedure, shortened: as §1

[5] = system: Bacillus subtilis Wild type
Procedure, shortened: as §1

With `CCCCOCCO` [EB, 2-butoxyethanol] the Grade ([1]; 2.5% (wt/vol), 3 day) was 4 (1000 to 10,000 colonies countable (thus 10,000 CFU/mL to 100,000 CFU/mL)), the Grade ([1]; 2.5% (wt/vol), 14 day) was 4 (1000 to 10,000 colonies countable (thus 10,000 CFU/mL to 100,000 CFU/mL)) and the Grade ([1]; 2.5% (wt/vol), 30 day) was 4 (1000 to 10,000 colonies countable (thus 10,000 CFU/mL to 100,000 CFU/mL)). The Grade ([1]; 5.0% (wt/vol), 3 day) was 2 (52 to 100 colonies counted (thus 520 to 1000 CFU/mL)), the Grade ([1]; 5.0% (wt/vol), 14 day) was 0 and the Grade ([1]; 5.0% (wt/vol), 30 day) was 0. The Grade ([2]; 2.5% (wt/vol), 3 day) was 4 (1000 to 10,000 colonies countable (thus 10,000 CFU/mL to 100,000 CFU/mL)), the Grade ([2]; 2.5% (wt/vol), 13 day) was 4 (1000 to 10,000 colonies countable (thus 10,000 CFU/mL to 100,000 CFU/mL)) and the Grade ([2]; 2.5% (wt/vol), 30 day) was 4 (1000 to 10,000 colonies countable (thus 10,000 CFU/mL to 100,000 CFU/mL)). For the same compound, the Grade ([2]; 5.0% (wt/vol), 3 day) was 0, the Grade ([2]; 5.0% (wt/vol), 13 day) was 0 and the Grade ([2]; 5.0% (wt/vol), 30 day) was 0. The “S. epidermidis growth grade, 3 day” value ([3]; 2.5% weight/volume) was 4 (1000 to 10,000 colonies countable (thus 10,000 CFU/mL to 100,000 CFU/mL)), the “S. epidermidis growth grade, 13 day” value ([3]; 2.5% weight/volume) was 4 (1000 to 10,000 colonies countable (thus 10,000 CFU/mL to 100,000 CFU/mL)) and the “S. epidermidis growth grade, 30 day” value ([3]; 2.5% weight/volume) was 4 (1000 to 10,000 colonies countable (thus 10,000 CFU/mL to 100,000 CFU/mL)). For the same compound, the “S. epidermidis growth grade, 3 day” value ([3]; 5.0% weight/volume) was 0, the “S. epidermidis growth grade, 13 day” value ([3]; 5.0% weight/volume) was 0 and the “S. epidermidis growth grade, 30 day” value ([3]; 5.0% weight/volume) was 0. For the same compound, the “P. vulgaris growth grade, 3 day” value ([4]; 2.5% weight/volume) was 4 (1000 to 10,000 colonies countable (thus 10,000 CFU/mL to 100,000 CFU/mL)), the “P. vulgaris growth grade, 13 day” value ([4]; 2.5% weight/volume) was 4 (1000 to 10,000 colonies countable (thus 10,000 CFU/mL to 100,000 CFU/mL)) and the “P. vulgaris growth grade, 30 day” value ([4]; 2.5% weight/volume) was 4 (1000 to 10,000 colonies countable (thus 10,000 CFU/mL to 100,000 CFU/mL)). The “P. vulgaris growth grade, 3 day” value ([4]; 5.0% weight/volume) was 0, the “P. vulgaris growth grade, 13 day” value ([4]; 5.0% weight/volume) was 0 and the “P. vulgaris growth grade, 30 day” value ([4]; 5.0% weight/volume) was 0. The “B. subtillis growth grade, 3 day” value ([5]; 2.5% weight/volume) was 4 (1000 to 10,000 colonies countable (thus 10,000 CFU/mL to 100,000 CFU/mL)), the “B. subtillis growth grade, 14 day” value ([5]; 2.5% weight/volume) was 4 (1000 to 10,000 colonies countable (thus 10,000 CFU/mL to 100,000 CFU/mL)) and the “B. subtillis growth grade, 30 day” value ([5]; 2.5% weight/volume) was 4 (1000 to 10,000 colonies countable (thus 10,000 CFU/mL to 100,000 CFU/mL)). The “B. subtillis growth grade, 3 day” value ([5]; 5.0% weight/volume) was 1 (0 to 51 colonies counted (thus 10 to 510 CFU/mL based on 0.1-mL sample)), the “B. subtillis growth grade, 14 day” value ([5]; 5.0% weight/volume) was 0 and the “B. subtillis growth grade, 30 day” value ([5]; 5.0% weight/volume) was 0.
